Source: paper PMC6273152, “Design, Synthesis, and Biological Evaluation of Novel PARP-1 Inhibitors Based on a 1H-Thieno[3,4-d] Imidazole-4-Carboxamide Scaffold” (Molecules, 2016)

Key:
PARP-1 enzyme = target: T1, PARP-1 enzyme (Homo sapiens, UniProt P09874); experiment: PARP-1 enzymatic inhibition assay (Trevigen 96-well kit, fluorescence); type: biochemical; conditions: Table 2 series (16a–n); logit method, six concentrations; read-out: IC50 (PARP-1 enzyme inhibitory activity)
T1 construct: purchased Trevigen 4690-096-K
T1 sequence (P09874 whole entry): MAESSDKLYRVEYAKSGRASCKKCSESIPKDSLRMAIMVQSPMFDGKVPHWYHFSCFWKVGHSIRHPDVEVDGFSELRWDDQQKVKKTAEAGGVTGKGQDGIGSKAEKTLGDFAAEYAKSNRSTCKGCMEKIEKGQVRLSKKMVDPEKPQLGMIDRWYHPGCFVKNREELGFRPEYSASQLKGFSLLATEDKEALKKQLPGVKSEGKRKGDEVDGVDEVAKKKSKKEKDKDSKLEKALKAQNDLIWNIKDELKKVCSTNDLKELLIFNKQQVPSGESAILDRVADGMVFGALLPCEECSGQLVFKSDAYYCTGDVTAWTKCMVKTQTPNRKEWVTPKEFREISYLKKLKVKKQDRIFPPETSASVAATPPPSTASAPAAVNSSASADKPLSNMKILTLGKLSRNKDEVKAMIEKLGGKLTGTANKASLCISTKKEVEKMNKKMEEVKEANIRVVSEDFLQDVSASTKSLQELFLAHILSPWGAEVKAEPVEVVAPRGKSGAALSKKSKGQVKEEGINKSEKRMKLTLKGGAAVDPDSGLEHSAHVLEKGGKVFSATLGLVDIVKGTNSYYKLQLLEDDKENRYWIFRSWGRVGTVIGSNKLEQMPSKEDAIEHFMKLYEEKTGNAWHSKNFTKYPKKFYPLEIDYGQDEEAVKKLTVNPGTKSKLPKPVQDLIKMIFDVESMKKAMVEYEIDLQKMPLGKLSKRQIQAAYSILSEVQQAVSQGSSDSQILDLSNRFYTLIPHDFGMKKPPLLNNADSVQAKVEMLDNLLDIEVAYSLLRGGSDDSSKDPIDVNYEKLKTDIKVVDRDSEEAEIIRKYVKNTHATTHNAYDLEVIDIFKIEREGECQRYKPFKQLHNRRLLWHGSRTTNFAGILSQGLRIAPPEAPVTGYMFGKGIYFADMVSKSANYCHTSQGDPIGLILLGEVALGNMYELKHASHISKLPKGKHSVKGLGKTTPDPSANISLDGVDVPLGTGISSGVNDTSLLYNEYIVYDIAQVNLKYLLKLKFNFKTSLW
Procedure: All target compounds were evaluated in vitro for their PARP-1 enzyme inhibitory activity.
The procedure was according to the instructions provided by the manufacturer. […] 25 μL of 1 × Buffer was added to each well and 25 μL of appropriate 2 × NAD^+ standards were added to 1B to 1G and 2B to 2G well of 96-well plate for standard curve. 25 μL of 2 μM NAD was added to 1H and 2H for PARP control. 25 μL of 2 μM NAD was added to wells for test compounds, then serially diluted compounds were added, and 1 μL of DMSO was added to the standard well. 25 μL of PARP Mix minus enzyme was added to 1A to 1G and 25 μL of PARP Mix plus enzyme was added to PARP control and compounds well. […] Then 50 μL stop solution was added to each well, and mixed with pipette. […] Then draw the standard curve and calculate the inhibition rate of each test compound.

in vitro = conditions: human, normal human lung fibroblast (HLF) cells
Procedure: (§1) The cytotoxic potencies of test compounds were determined on normal human lung fibroblast (HLF) cells. Cells were seeded into 96-well plate at 3000 cells/well. The stock solutions of test compounds were dissolved in DMSO and serially diluted to the required concentrations for 7 doses, and the final testing concentrations for these compounds were 0.3, 1, 3, 10, 30, 100, 300 µM. […] The fraction of surviving cells after compound treatment was determined using the MTT assay.

[1] = test system: HCC1937 (BRCA1-deficient) cells; experiment: CellTiter Glo assay for cell growth inhibition, HCC1937; conditions: Homo sapiens, HCC1937, 96 h, read-out: IC50 (BRCA-1, HCC1937)
Procedure: (§2) The growth inhibition potential of test compounds was determined on BRCA1-deficient cell lines HCC1937 and BRCA2-deficient cell lines CAPAN-1. The stock solutions of test compounds were dissolved in DMSO and serially diluted to the required concentrations for 9 doses. […] 60 μL medium was removed from each well and plates were kept at room temperature for 30 min. 60 μL reagent (Celltiter Glo assay kit, Promega, Sunnyvale, CA, USA) per well was added and plates were shaked for 2 min. Cells were incubated avoiding light at room temperature for 30 min and the luminescence value was recorded by multiplate reader. GraphPad Prism 5 was used to plot effect-dose curves and calculate the IC50 values of compounds.

[2] = test system: CAPAN-1 (BRCA2-deficient) cells; experiment: CellTiter Glo assay for cell growth inhibition, CAPAN-1; conditions: Homo sapiens, CAPAN-1, 96 h, read-out: IC50 (BRCA-2, CAPAN-1)
Procedure: as §2

[3] = test system: normal human lung fibroblast (HLF) cells; experiment: Cytotoxicity assay (MTT) on normal human lung fibroblast cells; conditions: 72 h
Procedure: as §1

| Compound | IC50 (PARP-1 enzyme) [µM] | IC50 at 72 h (in vitro) [µM] | IC50 [1] [µM] | IC50 [2] [µM] | Inhibition Rate ([3]; 0.3 µM) [%] | Inhibition Rate ([3]; 1 µM) [%] | Inhibition Rate ([3]; 3 µM) [%] | Inhibition Rate ([3]; 10 µM) [%] | Inhibition Rate ([3]; 30 µM) [%] | Inhibition Rate ([3]; 100 µM) [%] | Inhibition Rate ([3]; 300 µM) [%] |
| --- | --- | --- | --- | --- | --- | --- | --- | --- | --- | --- | --- |
| COc1ccc(-c2nc3c(C(N)=O)scc3[nH]2)cc1 [Compound 16j, 2-(4-Methoxyphenyl)-1H-thieno[3,4-d]imidazole-4-carboxamide] | 0.102 | > 300 | 55.14 ± 0.24 | 46.6 ± 0.62 | 0.68 | 2.85 | 2.68 | 6.95 | 9.43 | 12.63 | 32.37 |
| Cc1ccc(-c2nc3c(C(N)=O)scc3[nH]2)cc1 [Compound 16l, 2-(p-Tolyl)-1H-thieno[3,4-d]imidazole-4-carboxamide] | 0.043 | > 300 | 49.2 ± 5.43 | 38.8 ± 1.6 | 0.42 | 3.80 | 7.12 | 10.16 | 13.65 | 23.20 | 27.94 |
